This assay deals with Arabidopsis. As to the kind of experiment: Influence 5 of treatment condition on Arabidopsis: seed weight, dry weight, harvest index. The class given is in vivo. The procedure:
Seeds of Arabidopsis were sown in pods filled with soil immersed in water. The pods were transferred to trays filled with water containing 0.2 mM-GSSG or 1 mM-GSSG and cultivated there only for two weeks that were the first and second weeks (0th-14th day), the third and fourth weeks (15th-28th day), the fifth and sixth weeks (29th-42nd day), or the seventh and eighth weeks (43rd-56th day) after the sowing. That is, Arabidopsis were treated with 0.2 mM-GSSG or 1 mM-GSSG only for two weeks in a specific growth period.
Arabidopsis was cultivated under the same conditions as those described in <1. Influence of oxidized glutathione on growth of Arabidopsis> except for the above condition.
The seed weight, dry weight, and harvest index of Arabidopsis thus cultivated (three plants in each pod) were measured and an average of three pods was calculated.

As to oxidized glutathione [GSSG], under “0.2 mM-GSSG”, the “dry weight vs not treated” value is listed as “increased little”, the “harvest index vs not treated” value is listed as “increased” and the “seed weight vs not treated” value is “increased”. Further, under “1 mM-GSSG”, the “dry weight vs not treated” value was “evidently increased” and the “seed weight vs not treated” value is listed as “evidently increased”. Also, the “harvest index vs not treated” value (1 mM-GSSG, except when treated 1 or 2 weeks after the sowing) is given as “evidently increased”.
